# From US6710066B2, “Photochemotherapeutic method using 5-aminolevulinic acid and other precursors of endogenous porphyrins” (priority 1989, dated 2004)
# Key:
# [1] = system: endometrium (uterine horns); test: Long term photodynamic endometrial ablation in rats; format: in vivo, rat
# Procedure: Rats were divided into 2 groups (6 and 7 rats/group) and their uterine horns were injected with 4 or 8 mg ALA. Example 1, of U.S. application Ser. No. 08/082,113, filed Jun. 21, 1993 (U.S. Pat. No. 5,422,093), was repeated with the exception that all rats were exposed to light and the time from ALA administration to breeding was extended from 10-20 days to 60-70 days. All other procedures were identical to Example 1.
# In the groups of rats (n=7) treated with 8 mg ALA 2 of 7 became pregnant in ALA treated uterine horns compared with 7 of 7 pregnancies in the saline treated horns.
# In order to show normal uterine histology of a nonpregnant uterine horn contralateral to a pregnant uterine horn one uterine horn was ligated at its distal end prior to breeding. At gestation of 10-15 days nonpregnant uterine horns were harvested and histologically processed. The uterine mucosa was lined with columnar epithelium and there was hypertrophic infolding of endometrial tissue with tortuous glands.
# [2] = system: endometrial and myometrial samples; test: Fluorescence of endometrial and myometrial samples incubated with ALA; format: cell-based; settings: 1 mM ALA
# Procedure: The procedures of Example 1 (U.S. Pat. No. 5,422,093) were repeated with 1, 2, 3, 4 and 5 hour incubation periods using a level of 1 mM of ALA.
# [3] = system: endometrium and myometrium; test: Endometrial fluorescence in vivo following topical application of ALA in the non-human primate; set-up: species or system rhesus monkey; settings: 50 mg ALA into uterine lumen, hysterectomy 3 hours later
# Procedure: 50 mg of ALA was injected into the uterine lumen of an adult, healthy, female rhesus monkey following exposure of the uterus at laparotomy. A hysterectomy was performed 3 hours later and cross sectional slices incorporating endometrial and myometrial tissue were taken from the uterine specimen. These slices were subjected to examination by fluorescence microscopy as in Example 2 and 3 above.
# [4] = system: Candida albicans, Candida glabrata, Cryptococcus neoformans, Penicillium species, Aspergillus niger, Aspergillus fumigatus, Alternaria species, Saccharomyces …; test: In vitro PpIX fluorescence of yeast and fungi treated with ALA; format: cell-based; settings: ALA 1 mM to 100 mM or 20-80% solutions in water
# Procedure: Clinical isolates of Candida albicans, Candida glabrata, and Cryptococcus neoformans and environmental isolates of Penicillium species, Aspergillus niger, Aspergillus fumigatus, and Alternaria species and Saccharomyces cerivisiae (brewer's yeast) obtained from the clinical microbiology laboratories of Kingston General Hospital, Kingston, Ontario, Canada were used. The organisms were plated, and during rapid growth were treated with various concentrations of ALA varying from 1 mM to 100 mM by flooding or by using diffusion wells in the agar, while the isolates of Penicillium and Aspergillus were treated with 40% or 80% solutions of ALA in water and the Penicillium species, Alternaria species, Aspergillus niger and Aspergillus fumigatus were treated with 20% ALA in water via diffusion wells.
# P. yoelii [5] = test: In vitro incubation of blood, spleen or marrow cells from P. yoelii infected mice with ALA; format: cell-based, mouse
# Procedure: For the in vitro studies, no ALA was given to the donor mice. Two drops of whole blood were withdrawn from the tail of each mouse and placed in a 35 mm petri dish containing 3 cc of RPMI 1640 without phenol red.
# i) a petri dish contained infected whole blood with […] ALA in RPMI.
# ii) a second petri dish contained infected whole blood plus RPMI but not ALA.
# iii) a third petri dish contained normal whole blood cells with 5 mM ALA in RPMI.
# iv) a fourth petri dish contained normal whole blood cells with RPMI but not ALA.
# All petri dishes were incubated at 37 Celsius and room air environment. Samples (0.5 cc) were taken at regular intervals from these incubated petri dishes to be analyzed in the flow cytometer to follow accumulation of PpIX.
# P. chabaudi = test: In vitro photosensitization of P. chabaudi, cells of infected mice incubated with ALA; format: cell-based, mouse
# acne lesions = test: PpIX induced fluorescence in subjects with truncal acne after topical ALA; format: in vivo, human
# Procedure: Evaluation of PpIX induced fluorescence in 8 subjects with mild to moderate truncal acne was performed. Bacterial infections are frequently associated with lesions of acne, e.g., P. acne. Following evaluation of baseline acne lesion fluorescence, ALA solution 10 and 20% was applied to 10 5 cm^2 sites on the chest or back of volunteers and evaluated at times 0, 3, 8 and 24 hours after ALA application. One site of each concentration was also occluded with opaque film for 3 hours and evaluated at similar time points for comparison with unoccluded sites. Fluorescence of both acneiform lesions as well as surrounding normal skin was assessed visually using a 4 point grading system (0=none, 4=extremely severe) and documented photographically.
# [6] = system: Lumbricus terrestris (dewworm); test: PpIX accumulation on exposure to exogenous ALA, dewworm; settings: exposed to exogenous ALA
# [7] = system: Enterobius vennicularis (pinworm); test: PpIX accumulation on exposure to exogenous ALA, pinworm; settings: exposed to exogenous ALA
# [8] = very large doses; cited from earlier work
# [9] = cited from earlier work
# P. yoelii [10] = test: ALA-induced fluorescence within erythrocytes parasitized by P. yoelii, mice given ALA
# [11] = cells incubated with ALA in vitro
# [12] = ALA solution 10 and 20%, unoccluded sites
# [13] = sites occluded with opaque film for 3 hours
# [14] = 250 mg/kg ALA intraperitoneal, heavily parasitized mice
# [15] = ALA injected into infected mice
structure (smiles),measurement,setting,value
"NCC(=O)CCC(=O)O [ALA, 5-Amino-4-oxopentanoic acid]",implantations in uterine horns treated with ALA,"[1]; 4 mg ALA, light, breeding 60-70 days after photodynamic treatment, n=6",no implantations
same,rats pregnant in ALA treated uterine horns,"[1]; 8 mg ALA, light, breeding 60-70 days after treatment, n=7, saline horns 7 of 7",2 of 7
same,endometrial histology after photodynamic treatment,[1]; despite hormonal stimulus of contralateral pregnancy,atrophic endometrium
same,incubation time of maximum fluorescence in endometrial samples,[2],4 h
same,fluorescence in myometrial samples,[2]; 1-5 hour incubation,No significant fluorescence
same,fluorescence in endometrial samples,[2]; incubated for 2 hours,No significant fluorescence
same,fluorescence in endometrium,[3],Fluorescence was observed throughout the endometrium of all slices
same,fluorescence in myometrium,[3],No fluorescence was observed
same,PpIX accumulation in molds and yeasts,[4],Positive PpIX accumulation
same,"PpIX fluorescence of whole blood incubated with ALA, flow cytometer","P. yoelii [5]; ALA in RPMI 1640 (5 nM infected, 5 mM normal blood as printed), 37 Celsius",Only cells from infected mice developed PpIX fluorescence when incubated with ALA
same,PpIX accumulation in non-infected erythrocytes and leukocytes,P. yoelii [5]; [11],significant concentrations of PpIX did not accumulate
same,PpIX accumulation in plasmodia within erythrocytes,P. yoelii [5]; [11],accumulated within many of the plasmodia
same,PpIX accumulation in non-infected erythrocytes and leukocytes,P. chabaudi,significant concentrations of PpIX did not accumulate
same,PpIX accumulation in plasmodia within erythrocytes,P. chabaudi,accumulated within many of the plasmodia
same,PpIX fluorescence by 24 hours,acne lesions; [12],weak or no fluorescence
same,dose dependence of increase in PpIX fluorescence,acne lesions; [12],dose dependent
same,specificity of PpIX fluorescence,acne lesions; [12],specific for acne lesions and spared normal surrounding skin
same,time of maximum PpIX fluorescence,acne lesions; [12],8 h
same,PpIX fluorescence at 24 hours,acne lesions; [13],remained present at 24 hours
same,distribution of PpIX fluorescence,acne lesions; [13],developed PpIX fluorescence in both acne lesions and normal surrounding skin
same,accumulation of fluorescing concentrations of PpIX,[6],ALA-induced fluorescence
same,accumulation of photosensitizing concentrations of PpIX,[6],ALA-induced photosensitization
same,accumulation of fluorescing concentrations of PpIX,[7],ALA-induced fluorescence
same,accumulation of photosensitizing concentrations of PpIX,[7],ALA-induced photosensitization
same,effect on motor nerve conduction velocity,[8],transient decrease in motor nerve conduction velocity
same,solubility in water,[9],water soluble
same,protoporphyrin fluorescence of pellet and supernatant after saponin hemolysis,"P. yoelii [10]; 250 mg/kg ALA IP, 4 hours, excitation 410 nm, emission 635 nm",Protoporphyrin fluorescence was detected only in Plasmodial pellet derived from infected mice given ALA
same,fluorescence microscopy of blood/spleen cells,P. yoelii [10]; 250 mg/kg ALA intraperitoneal,Red fluorescence developed within parasitized erythrocytes
same,fluorescence flow cytometry of peripheral blood and spleen erythrocytes,P. yoelii [10]; [14],developed red fluorescence
same,spectrophotofluorometry of blood and spleen cell pellets,P. yoelii [10]; [14],Protoporphyrin was the only fluorophore that was identified
same,erythrocyte fluorescence by flow cytometer (accumulation of PpIX),"P. yoelii [10]; 250 mg/kg ALA intraperitoneal, tail blood at intervals",Only infected mice given ALA developed fluorescence in their erythrocytes
same,PpIX accumulation in non-infected erythrocytes and leukocytes,P. yoelii [10]; [15],significant concentrations of PpIX did not accumulate
same,PpIX accumulation in plasmodia within erythrocytes,P. yoelii [10]; [15],accumulated in many of the plasmodia
same,accumulation of fluorescing concentrations of PpIX,"P. yoelii [10]; exposed to exogenous ALA, Example 10 list",ALA-induced fluorescence
